# Data reported in PMC2248166, “Quantitative peptide binding motifs for 19 human and mouse MHC class I molecules derived using positional scanning combinatorial peptide libraries” (Immunome Research, 2008).
# Legend:
# HLA A*3001 = HLA A*3001 (Homo sapiens, UniProt P04439, D140H/D185E/E176W/F33S/G80R/H175R/K168Q/R138E/R41S); test: biochemical; format: binding
# HLA A*3201 = HLA A*3201 (Homo sapiens, UniProt P04439, A270S/D101S/D185E/E176V/E277Q/F133L/G103R/G107R/G231S/H175R/I121M/I218V/I322F/K168Q/L105A/L300P/L318F/M331R/P208A/P217A/Q94H/R106L/R138Q/S129P/T104I/T323A/T345S/V100E/V321M/V358M); test: biochemical; format: binding
# HLA A*6802 = HLA A*6802 (Homo sapiens, UniProt P04439, A269V/D140Y/D185E/E176V/E277Q/E87N/F33Y/G231S/I121R/I166T/I218V/L180W/L300P/L318F/N151K/P208A/P217A/Q86R/R138H/R169H/S129P/T345S/V36M); format: binding
# HLA B*0702 = HLA B*0702 (Homo sapiens, UniProt P01889); format: binding; conditions: positional scanning combinatorial 9-mer library; normalized to 1.0 for the best residue at each position
# HLA B*0801 = HLA B*0801 (Homo sapiens, UniProt P01889, A93T/A95T/D138N/E176V/E187T/K202T/Q94N/R180D/S35A/V36M/Y33D/Y91F); test: biochemical; format: binding
# HLA B*1501 = HLA B*1501 (Homo sapiens, UniProt P01889, A329T/A93T/A95T/C349S/D201E/D98Y/E187L/E204Q/E69M/E70A/K202T/N87E/Q94N/R155S/R180W/S121R/S35A/S48A/V306I/V36M/Y140S/Y91S); test: biochemical; format: binding
# HLA B*1503 = HLA B*1503 (Homo sapiens, UniProt P01889, A329T/A93T/A95T/C349S/D201E/D98Y/E187L/E204Q/K202T/N87E/Q94N/R155S/R180L/S121R/S35A/V306I/V36M/Y140S/Y91S); test: biochemical; format: binding
# HLA B*2705 = HLA B*2705 (Homo sapiens, UniProt P01889, D138H/D201E/E176V/E204Q/G107R/H137Y/K202T/N104T/N87E/Q56L/Q94K/R106L/R155S/R180L/S101D/S121N/S48T/Y140D/Y33H/Y91C); format: binding; conditions: positional scanning combinatorial 9-mer library; normalized to 1.0 for the best residue at each position
# HLA B*3501 = HLA B*3501 (Homo sapiens, UniProt P01889, A329T/A93T/A95T/C349S/D201E/D98Y/E176V/E187L/E204Q/E69T/I218V/K202T/L119I/Q94N/R155S/R180L/S121R/S35A/S48A/T118I/V127L/V306I/V36M/Y140S/Y91F); format: binding
# HLA B*5101 = HLA B*5101 (Homo sapiens, UniProt P01889, A329T/A93T/A95T/C349S/D138N/D201E/D98Y/E187L/E204Q/E69T/G107R/I218V/K202T/L105A/L119W/N104I/Q94N/R106L/R155S/R180L/S101N/S121T/S35A/S48A/V306I/V36M/Y195H/Y91F); format: binding
# HLA B*5301 = HLA B*5301 (Homo sapiens, UniProt P01889, A329T/A93T/A95T/C349S/D201E/D98Y/E176V/E187L/E204Q/E69T/G107R/I218V/K202T/L105A/L119I/N104I/Q94N/R106L/R155S/R180L/S101N/S121R/S35A/S48A/T118I/V127L/V306I/V36M/Y140S/Y91F); format: binding
# HLA B*5401 = HLA B*5401 (Homo sapiens, UniProt P01889, A329T/C349S/D138N/D201E/E176V/E187T/E204Q/E69G/I76V/K202T/L119W/R155S/R180L/S121T/S35A/S48A/V127L/V306I/V36M/Y140L); format: binding
# HLA B*5801 = HLA B*5801 (Homo sapiens, UniProt P01889, A329T/C349S/D201E/D98Y/E176V/E187L/E204Q/E69T/G107R/I218V/I90N/K202T/L105A/L119I/N104I/N87E/Q89R/Q94S/R106L/R155S/R180L/R86G/S101N/S121R/S35A/S48A/T118I/V127L/V306I/V36M/Y140S/Y91M); format: binding
# HLA B*5802 = HLA B*5802 (Homo sapiens, UniProt P01889, A329T/C349S/D201E/D98Y/E176V/E187L/E204Q/E69T/G107R/I218V/I90N/K202T/L105A/N104I/N87E/Q89R/Q94S/R106L/R155S/R180L/R86G/S101N/S121W/S35A/S48A/V127L/V306I/V36M/Y140S/Y91M); format: binding
# H-2 D^b = H-2 D^b (Mus musculus, UniProt P01899); format: binding
# H-2 D^d = H-2 D^d (Mus musculus, UniProt P01900); format: binding
# H-2 K^k = H-2 K^k (Mus musculus, UniProt P04223); format: binding
# HLA A*0201 = HLA A*0201 (Homo sapiens, UniProt P04439, D140Y/D185E/D98H/E176V/E277Q/G131W/G231S/I119V/I121R/I166T/I218V/L300P/L318F/N151K/N90K/P208A/P217A/Q86G/Q94H/R138H/R169H/T345S); conditions: positional scanning combinatorial 9-mer library; normalized to 1.0 for the best residue at each position
# Sequence of H-2 D^d (P01900 whole entry, looked up): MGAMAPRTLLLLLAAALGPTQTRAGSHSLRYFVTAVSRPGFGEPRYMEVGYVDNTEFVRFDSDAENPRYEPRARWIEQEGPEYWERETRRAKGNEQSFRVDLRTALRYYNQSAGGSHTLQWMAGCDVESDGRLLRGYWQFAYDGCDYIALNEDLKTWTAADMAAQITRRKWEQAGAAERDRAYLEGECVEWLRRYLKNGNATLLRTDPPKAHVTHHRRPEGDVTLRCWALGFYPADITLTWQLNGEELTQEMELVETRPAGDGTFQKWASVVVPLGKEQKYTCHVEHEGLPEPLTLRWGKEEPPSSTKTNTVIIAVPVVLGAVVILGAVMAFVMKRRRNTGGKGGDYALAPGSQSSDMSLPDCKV
# Sequence of H-2 D^b (P01887 21-119): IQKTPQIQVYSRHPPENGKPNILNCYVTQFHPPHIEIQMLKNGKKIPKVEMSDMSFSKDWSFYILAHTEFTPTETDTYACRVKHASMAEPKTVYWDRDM
# Sequence of H-2 D^b (P01899 25-362): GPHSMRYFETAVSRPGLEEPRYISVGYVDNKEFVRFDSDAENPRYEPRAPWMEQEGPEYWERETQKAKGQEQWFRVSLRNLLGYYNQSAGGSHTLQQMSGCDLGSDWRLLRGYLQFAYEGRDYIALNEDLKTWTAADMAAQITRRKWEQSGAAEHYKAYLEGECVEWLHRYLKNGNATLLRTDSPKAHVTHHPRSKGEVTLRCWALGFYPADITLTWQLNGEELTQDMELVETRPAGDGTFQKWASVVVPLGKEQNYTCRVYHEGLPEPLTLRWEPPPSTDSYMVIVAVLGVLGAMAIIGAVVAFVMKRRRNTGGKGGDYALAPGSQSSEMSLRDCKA
# Sequence of H-2 K^k (P01887 21-119): as the sequence (P01887 21-119) above
# Sequence of H-2 K^k (P04223 22-369): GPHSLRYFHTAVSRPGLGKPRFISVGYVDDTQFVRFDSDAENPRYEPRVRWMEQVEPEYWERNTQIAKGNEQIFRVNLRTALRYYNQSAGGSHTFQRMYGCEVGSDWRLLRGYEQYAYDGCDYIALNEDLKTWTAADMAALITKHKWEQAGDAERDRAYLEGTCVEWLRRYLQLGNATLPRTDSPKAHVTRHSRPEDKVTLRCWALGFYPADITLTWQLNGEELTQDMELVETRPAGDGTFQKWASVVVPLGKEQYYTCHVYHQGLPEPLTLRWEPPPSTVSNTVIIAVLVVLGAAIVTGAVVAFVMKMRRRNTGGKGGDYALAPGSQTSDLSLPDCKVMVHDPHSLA
Sequence,"Normalized average relative binding affinity (ARB), HLA A*3001 (HLA A*3001)","Normalized average relative binding affinity (ARB), HLA A*3201 (HLA A*3201)","Normalized average relative binding affinity (ARB), HLA A*6802 (HLA A*6802)","Normalized average relative binding affinity (ARB), HLA B*0702 (HLA B*0702)","Normalized average relative binding affinity (ARB), HLA B*0801 (HLA B*0801)","Normalized average relative binding affinity (ARB), HLA B*1501 (HLA B*1501)","Normalized average relative binding affinity (ARB), HLA B*1503 (HLA B*1503)","Normalized average relative binding affinity (ARB), HLA B*2705 (HLA B*2705)","Normalized average relative binding affinity (ARB), HLA B*3501 (HLA B*3501)","Normalized average relative binding affinity (ARB), HLA B*5101 (HLA B*5101)","Normalized average relative binding affinity (ARB), HLA B*5301 (HLA B*5301)","Normalized average relative binding affinity (ARB), HLA B*5401 (HLA B*5401)","Normalized average relative binding affinity (ARB), HLA B*5801 (HLA B*5801)","Normalized average relative binding affinity (ARB), HLA B*5802 (HLA B*5802)","Normalized average relative binding affinity (ARB), H-2 Db (H-2 D^b)","Normalized average relative binding affinity (ARB), H-2 Dd (H-2 D^d)","Normalized average relative binding affinity (ARB), H-2 Kk (H-2 K^k)","Normalized average relative binding affinity (ARB), HLA A*0201 (HLA A*0201)"
GXXXXXXXX [3064.0006],0.11,0.14,0.022,0.15,0.088,0.43,0.063,0.60,0.030,0.028,0.0086,0.0071,0.069,0.14,0.096,0.15,0.14,0.089
HXXXXXXXX [3064.0007],0.49,0.38,0.53,0.80,0.18,0.59,0.20,0.49,1.0,0.15,1.0,0.34,0.43,0.026,0.17,0.21,0.91,0.0048
IXXXXXXXX [3064.0008],0.11,0.47,0.076,0.42,0.068,1.0,0.51,0.22,0.30,0.23,0.15,0.27,0.35,0.17,0.13,0.39,0.27,0.12
